Measured values: US12311136B2, “Using alternating electric fields to increase permeability of the blood brain barrier” (Novocure GmbH, priority 2020, dated 2025)

Experiments:
Type in all cases: in vivo
rat brain (BBB) [1] = test: Evans Blue (EB) accumulation in rat brain after alternating electric fields
Description: A set of in vivo experiments on rats was also run to quantify the increase in vessel permeability caused by exposure to the alternating electric fields. These experiments used Evans Blue (EB) dye, which is an azo dye that has a very high affinity for serum albumin (molecule size ˜69 kDa). Because of its large molecule size, serum albumin will ordinarily not be able to get past the BBB.
This was accomplished by shaving each rat's head, positioning a first pair of capacitively coupled electrodes on the top and bottom of the rat's head, and positioning a second pair of capacitively coupled electrodes on the left and right sides of the rat's head. A 100 kHz AC voltage was then applied between the top and bottom electrodes for 1 second, followed by a 100 kHz AC voltage applied between the right and left electrodes for 1 second, in a repeating sequence.
Under the conditions indicated in Table 1 and for the times indicated on Table 1, EB was injected intravenously into the tail vein under anesthesia (Once injected, EB immediately binds to Albumin), and the EB was allowed to circulate for 2 hours in all cases. The following steps were then performed: (a) intracardiac perfusion with saline; (b) brains are sliced in four pieces with a brain slicer; (c) pieces were photographed to localize staining and weighted; (d) EB extraction after tissue homogenization with TCA 50% (1:3) and centrifuge and (e) EB quantification at 610 nm. Results are given as μg EB per g tissue.
During the experiment, two animals from group 2 and one animal from group 4 were excluded (disrupted treatment, failure to inject EB into the tail vein). There were no differences between the animals treated with alternating electric fields (groups 1 and 2) and therefore these animals were grouped together. Similarly, there were no differences between sham heat and control animals (groups 3 and 4) and therefore these animals were grouped together.
EB accumulation in these four specific sections was then measured. In addition, a computer simulation was performed to determine the field strength in each of these four sections. […]

rat brain (BBB) [2] = test: DCE-MRI of Gadolinium contrast agent accumulation in rat brain; conditions: for contrast agent accumulation in the brain tissue, injection 96 h after the fields were turned off: 72 hours fields followed by 96 hours without fields vs control+96 h
Protocol: Yet another set of in vivo experiments was performed using Dynamic Contrast Enhanced MRI (DCE-MRI) with intravenous injection of Gadolinium contrast agent (Gd-DTPA, Magnetol, MW 547). In these experiments, test rats were treated with 100 kHz alternating electric fields for 72 h, and control rats were not treated with alternating electric fields for the same period of time. After this 72 h period, the alternating electric field was turned off, the rats were anesthetized, and a series of 60 T1w MRI scans (each of the scans having a duration of 28 seconds) was acquired. The gadolinium contrast agent was injected into the rat's tail vein during the 7th of these 60 scans.
The image analysis for each rat included (1) determining a baseline for each voxel by calculating the mean of the first six T1w MM scans for each voxel (i.e., the scans prior to the injection of the gadolinium); (2) computing voxel by voxel, the percent signal change (i.e., gadolinium accumulation) over time relative to the baseline; (3) segmenting the brain into anterior, middle, and posterior segments; (4) generating for each of the three segments the mean percent signal change with respect to the baseline over all the voxels in the respective segment and then (5) averaging 4 consecutive time points (i.e. 4 scans) together. Finally, the data from all of the rats within any given group were averaged together.
To test whether this increase in permeability of the BBB was temporary, the same test conditions were repeated, but followed with an additional 96 hours without alternating electric fields. After this 96 hour period, a series of 60 T1w MRI scans (each of the scans having a duration of 28 seconds) was acquired using the same procedure described above (including the gadolinium injection). The results of this portion of the DCE-MRI experiment for each of the three segments of the brain are also depicted in FIG. 8. […] From this we can conclude that the permeability of the BBB returns to normal after the alternating electric fields are discontinued.
The relationship between the intensity of the alternating electric fields and the impact of those fields on BBB integrity and permeability was also apparent from in vivo experiments in rats using serial dynamic contrast-enhanced (DCE) MM to measure gadolinium (Gd) uptake after 100 kHz alternating electric fields were applied for 72 hours. The rat's brains were segmented into three regions (anterior, posterior, and middle), and simulations of the alternating electric fields delivery to those three regions yielded field strengths of 1.5±0.6 V/cm RMS, 2.1±1.2 V/cm RMS, and 2.7±1.7 V/cm RMS respectively. […] These findings also indicate that the cells' response to alternating electric fields depends on the intensity of the fields.

GBM F98 cells [3] = test: Paclitaxel plus alternating electric fields in rat GBM, fold increase of tumor volume; conditions: 15 mg/kg PTX with 100 kHz fields, day 15, vs heat only
Protocol: (§1) Another set of in vivo experiments was performed to determine whether paclitaxel (PTX, which is a drug that ordinarily cannot traverse the BBB) can make it across the BBB when the subject is treated with alternating electric fields. In one of these experiments, glioblastoma was induced in rats by injecting them orthotopically with GBM F98 cells on day 0 of the experiment. On day 6, a first set of MRI scans of each rat's brains was obtained. Alternating electric fields at 100 kHz were applied to all the rats on days 7 through 10. On day 10 (i.e., after applying the fields for 72 hours), some of the rats were injected i.p. with 25 mg/kg PTX, while other rats were not injected. Subsequently, on day 13 (i.e., 3 days post PTX administration), a second set of MRI scans of each rat's brain was obtained. Ki67 (red) and DAPI (blue) staining was evaluated for the test and control rats.
A similar experiment using a 15 mg/kg dose of PTX was performed, except that instead of quantifying the Ki67/DAPI ratio on day 13, MRI scans and post mortem tissue sections were used to determine the fold increase of the tumor volume on day 15. The tumor volumes from these experiments are depicted in FIG. 11. […] And the inventors have concluded that the alternating electric fields allow the PTX (or metabolites thereof) to cross the BBB.

GBM F98 cells [4] = test: Paclitaxel plus alternating electric fields in rat GBM, Ki67/DAPI cell proliferation; conditions: 25 mg/kg PTX i.p. after 72 hours 100 kHz fields; day 13; vs alternating electric fields only
Protocol: as §1

`Cc1cc(-c2ccc(/N=N/c3ccc4c(S(=O)(=O)O)cc(S(=O)(=O)O)c(N)c4c3O)c(C)c2)ccc1/N=N/c1ccc2c(S(=O)(=O)O)cc(S(=O)(=O)O)c(N)c2c1O` [EB, Evans Blue] was tested, and the “average EB accumulation in the rat brain, averaged over all four sections 1-4” value (rat brain (BBB) [1]; 100 kHz fields 72 hours vs sham heat/control, p<0.05) was “higher accumulation of EB”, the “EB accumulation, brain sections 1, 2 (frontal cerebrum)” value (rat brain (BBB) [1]; 100 kHz fields 72 h vs sham heat/control, EB i.v., circulating 2 hours, field strength highest) was “statistically significant increase” and the “EB accumulation, posterior brain sections (3, 4)” value (rat brain (BBB) [1]; 100 kHz fields 72 h vs sham heat/control, EB i.v., circulating 2 hours, field strength lower) was “smaller increase (that was not statistically significant)”.

`O=C([O-])CN(CCN(CC(=O)[O-])CC(=O)O)CCN(CC(=O)[O-])CC(=O)O.[Gd+3]` [Gd-DTPA] was tested, and the “Gd signal enhancement in the middle and posterior brain” value (rat brain (BBB) [2]; 100 kHz fields 72 hours, about 10 minutes after Gd injection, vs control rats) was “significantly increased signal enhancement”, the “Gd accumulation in the anterior part of the brain” value (rat brain (BBB) [2]; 100 kHz fields 72 hours, lower field intensities in this region) was “no significant Gd accumulation” and the “contrast agent accumulation in the brain tissue (DCE-MRI percent signal change)” value (rat brain (BBB) [2]; 100 kHz fields 72 h vs control rats, anterior, middle, posterior segments) was “significantly higher than in the control rats”. For the same molecule, the “contrast agent accumulation in the brain tissue, injection 96 h after the fields were turned off” value (rat brain (BBB) [2]; listed as Gd) was “no significant accumulation of Gd”, the “contrast agent accumulation in the brain tissue, injection 96 h after the fields were turned off” value (rat brain (BBB) [2]; listed as contrast agent) was “not significantly different from the control rats” and the “Gd accumulation in control rats” value (rat brain (BBB) [2]; rats not treated using alternating electric fields) was “No significant Gd accumulation”. The “spatial distribution of Gd enhancement” value (rat brain (BBB) [2]; test rats (100 kHz fields 72 h), 20 to 23 minutes post-contrast administration) was “distributed in the whole brain”.

With `CC(=O)O[C@H]1C(=O)[C@@]2(C)[C@H]([C@H](OC(=O)c3ccccc3)[C@]3(O)C[C@H](OC(=O)[C@H](O)[C@@H](NC(=O)c4ccccc4)c4ccccc4)C(C)=C1C3(C)C)[C@]1(OC(C)=O)CO[C@@H]1C[C@@H]2O` [PTX, paclitaxel] the “fold tumor volume increase in the GBM tumor” value (GBM F98 cells [3]) was “significant decrease in the fold tumor volume increase” and the “cell proliferation in the GBM tumor (Ki67/DAPI ratio)” value (GBM F98 cells [4]) was “significant decrease in cell proliferation”.
